Assay results: article PMC5933782, “Molecular structures of cdc2-like kinases in complex with a new inhibitor chemotype” (PLoS ONE, 2018)

Columns and labels:
Test in all cases: radiometric protein kinase assay
[1] = test system: CK1δ/ε; type: biochemical, porcine; conditions: for IC50: 15 μmol/L ATP, read-out: IC50 CK1
[2] = target: CDK9/cyclin T (Homo sapiens, UniProt P50750)
[3] = target: T1, CDK2/cyclin A (Homo sapiens, UniProt P24941); type: biochemical; conditions: for IC50: 15 μmol/L ATP, read-out: IC50 CDK2/cyclinA
T1 construct: made in house

[4] = test system: CDK1/cyclin B; type: biochemical, starfish; conditions: for IC50: 15 μmol/L ATP
[5] = target: T2, DYRK2 (Homo sapiens, UniProt Q92630); type: biochemical; conditions: for IC50: 15 μmol/L ATP, read-out: IC50 DYRK 2
T2 sequence (Q92630 1-601): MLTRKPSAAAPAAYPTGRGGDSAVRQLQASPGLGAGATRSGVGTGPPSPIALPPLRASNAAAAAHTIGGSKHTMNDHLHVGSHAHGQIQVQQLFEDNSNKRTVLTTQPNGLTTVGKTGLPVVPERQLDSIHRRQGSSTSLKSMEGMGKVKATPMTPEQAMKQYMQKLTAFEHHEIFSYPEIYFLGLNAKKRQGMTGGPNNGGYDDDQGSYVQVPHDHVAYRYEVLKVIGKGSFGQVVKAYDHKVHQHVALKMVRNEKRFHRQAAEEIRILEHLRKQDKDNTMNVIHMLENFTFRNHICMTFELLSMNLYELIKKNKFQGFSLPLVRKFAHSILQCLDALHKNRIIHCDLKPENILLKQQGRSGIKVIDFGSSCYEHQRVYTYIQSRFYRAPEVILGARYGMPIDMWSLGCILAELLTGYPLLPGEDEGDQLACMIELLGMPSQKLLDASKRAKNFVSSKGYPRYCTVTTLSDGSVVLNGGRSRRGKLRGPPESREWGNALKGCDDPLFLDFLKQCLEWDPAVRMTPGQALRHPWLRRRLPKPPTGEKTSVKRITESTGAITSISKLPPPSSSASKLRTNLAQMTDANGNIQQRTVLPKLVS

[6] = target: DYRK1B (Homo sapiens, UniProt Q9Y463); type: biochemical; conditions: for IC50: 15 μmol/L ATP, read-out: IC50 DYRK 1B
Chain of DYRK1B (Q9Y463 whole entry): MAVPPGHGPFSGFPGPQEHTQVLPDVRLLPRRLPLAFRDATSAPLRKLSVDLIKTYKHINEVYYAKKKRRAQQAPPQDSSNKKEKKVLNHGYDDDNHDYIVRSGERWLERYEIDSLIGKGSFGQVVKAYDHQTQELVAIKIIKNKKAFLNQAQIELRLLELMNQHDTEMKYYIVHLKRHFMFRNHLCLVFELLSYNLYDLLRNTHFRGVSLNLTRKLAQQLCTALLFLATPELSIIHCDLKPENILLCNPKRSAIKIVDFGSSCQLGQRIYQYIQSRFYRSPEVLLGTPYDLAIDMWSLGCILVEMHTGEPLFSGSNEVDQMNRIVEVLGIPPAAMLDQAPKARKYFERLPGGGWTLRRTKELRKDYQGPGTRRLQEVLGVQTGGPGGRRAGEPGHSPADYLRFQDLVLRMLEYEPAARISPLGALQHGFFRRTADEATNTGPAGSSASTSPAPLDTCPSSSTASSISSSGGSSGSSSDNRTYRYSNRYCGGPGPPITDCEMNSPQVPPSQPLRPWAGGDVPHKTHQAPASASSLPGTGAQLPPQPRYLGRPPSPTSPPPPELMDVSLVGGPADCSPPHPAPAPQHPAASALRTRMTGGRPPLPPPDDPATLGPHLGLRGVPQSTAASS

[7] = test system: GSK-3; type: biochemical, porcine; conditions: for IC50: 15 μmol/L ATP, read-out: IC50 GSK3
[8] = target: CLK1 (Mus musculus, UniProt P22518)
Chain of CLK1 (P22518 whole entry): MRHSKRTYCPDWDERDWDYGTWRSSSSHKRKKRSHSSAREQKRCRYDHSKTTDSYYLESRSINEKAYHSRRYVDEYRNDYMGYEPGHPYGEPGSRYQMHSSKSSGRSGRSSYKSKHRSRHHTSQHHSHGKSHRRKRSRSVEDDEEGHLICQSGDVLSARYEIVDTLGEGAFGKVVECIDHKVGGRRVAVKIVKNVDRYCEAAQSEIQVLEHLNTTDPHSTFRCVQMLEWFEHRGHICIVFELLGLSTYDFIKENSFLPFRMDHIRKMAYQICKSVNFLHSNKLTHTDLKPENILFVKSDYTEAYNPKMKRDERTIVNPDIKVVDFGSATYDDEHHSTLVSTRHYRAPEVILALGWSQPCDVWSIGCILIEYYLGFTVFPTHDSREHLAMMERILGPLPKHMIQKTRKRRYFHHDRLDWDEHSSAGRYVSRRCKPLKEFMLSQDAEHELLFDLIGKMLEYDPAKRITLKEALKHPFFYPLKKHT
Protocol: Buffer A: 10 mM MgCl2, 1 mM EGTA, 1 mM DTT, 25 mM Tris-HCl pH 7.5, 50 μg heparin/mL. Buffer C: 60 mM β-glycerophosphate, 15 mM p-nitrophenylphosphate, 25 mM MOPS (pH 7.2), 15 mM EGTA, 15 mM MgCl2, 1 mM DTT, 1 mM sodium vanadate, 1 mM phenylphosphate.
Controls were performed with appropriate dilutions of DMSO. The GS-1, CKS, CDK7/9 tide and RS peptide substrates were obtained from Proteogenix (Oberhausbergen, France).
CDK1/cyclin B (M phase starfish oocytes, native), CDK2/cyclin A and CDK5/p25 (human, recombinant) were prepared as previously described [33]. […] ATP (3,000 Ci/mmol; 10 mCi/mL) in a final volume of 30 μL. After 30 min incubation at 30°C, the reaction was stopped by harvesting onto P81 phosphocellulose supernatant (Whatman) using a FilterMate harvester (Packard) and washing in 1% phosphoric acid. Scintillation fluid was added and the radioactivity measured in a Packard counter.
(§1) All data points for construction of dose response curves were recorded in triplicate.

[9] = target: CLK2 (Mus musculus, UniProt O35491)
Chain of CLK2 (O35491 whole entry): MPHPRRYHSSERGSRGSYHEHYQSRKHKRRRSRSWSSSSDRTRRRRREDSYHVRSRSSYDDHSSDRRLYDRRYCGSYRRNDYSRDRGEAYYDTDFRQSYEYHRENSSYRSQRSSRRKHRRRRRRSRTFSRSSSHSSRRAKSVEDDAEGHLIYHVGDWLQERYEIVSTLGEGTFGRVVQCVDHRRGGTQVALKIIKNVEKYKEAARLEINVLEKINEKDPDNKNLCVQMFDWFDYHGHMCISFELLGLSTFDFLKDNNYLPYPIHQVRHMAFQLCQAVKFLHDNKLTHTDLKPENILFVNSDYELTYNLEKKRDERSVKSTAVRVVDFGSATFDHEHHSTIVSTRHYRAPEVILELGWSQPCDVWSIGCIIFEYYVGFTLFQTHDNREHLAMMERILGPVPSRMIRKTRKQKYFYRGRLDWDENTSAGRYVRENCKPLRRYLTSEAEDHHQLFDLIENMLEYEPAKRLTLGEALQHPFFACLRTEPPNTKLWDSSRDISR
Protocol: (§2) Buffers. Buffer A: 10 mM MgCl2, 1 mM EGTA, 1 mM DTT, 25 mM Tris-HCl pH 7.5, 50 μg heparin/mL. Buffer C: 60 mM β-glycerophosphate, 15 mM p-nitrophenylphosphate, 25 mM MOPS (pH 7.2), 15 mM EGTA, 15 mM MgCl2, 1 mM DTT, 1 mM sodium vanadate, 1 mM phenylphosphate.
(§3) Kinase activities were assayed in buffer A or C at 30°C at a final ATP concentration of 15 μmol/L. Blank values were subtracted and activities were expressed in percent of the maximal activity, i.e. in the absence of inhibitors. Controls were performed with appropriate dilutions of DMSO.
(§4) Their kinase activity was assayed in buffer A, with 1 mg histone H1/mL, in the presence of 15 μmol/L [γ-33P] ATP (3,000 Ci/mmol; 10 mCi/mL) in a final volume of 30 μL. After 30 min incubation at 30°C, the reaction was stopped by harvesting onto P81 phosphocellulose supernatant (Whatman) using a FilterMate harvester (Packard) and washing in 1% phosphoric acid. Scintillation fluid was added and the radioactivity measured in a Packard counter.
as §1

[10] = target: DYRK1A (Homo sapiens, UniProt Q13627); type: biochemical; conditions: for IC50: 15 μmol/L ATP, read-out: IC50 DYRK 1A
[11] = target: CLK4 (Mus musculus, UniProt O35493)
Chain of CLK4 (O35493 whole entry): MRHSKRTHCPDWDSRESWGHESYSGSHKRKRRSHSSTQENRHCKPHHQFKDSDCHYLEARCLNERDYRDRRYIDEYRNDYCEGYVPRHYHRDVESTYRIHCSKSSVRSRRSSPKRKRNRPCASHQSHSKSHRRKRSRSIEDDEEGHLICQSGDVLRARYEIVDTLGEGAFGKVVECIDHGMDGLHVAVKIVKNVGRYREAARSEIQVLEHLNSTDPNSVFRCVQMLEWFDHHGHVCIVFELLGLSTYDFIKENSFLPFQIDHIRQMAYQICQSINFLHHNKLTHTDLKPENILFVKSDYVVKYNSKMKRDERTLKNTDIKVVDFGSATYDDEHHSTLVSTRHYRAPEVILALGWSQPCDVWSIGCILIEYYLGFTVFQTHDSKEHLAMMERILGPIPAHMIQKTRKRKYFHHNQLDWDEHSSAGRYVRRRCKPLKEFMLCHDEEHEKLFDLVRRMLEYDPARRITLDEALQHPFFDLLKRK
Protocol: as §2, §3, §4, §1

[12] = target: CLK3 (Mus musculus, UniProt O35492)
Chain of CLK3 (O35492 whole entry): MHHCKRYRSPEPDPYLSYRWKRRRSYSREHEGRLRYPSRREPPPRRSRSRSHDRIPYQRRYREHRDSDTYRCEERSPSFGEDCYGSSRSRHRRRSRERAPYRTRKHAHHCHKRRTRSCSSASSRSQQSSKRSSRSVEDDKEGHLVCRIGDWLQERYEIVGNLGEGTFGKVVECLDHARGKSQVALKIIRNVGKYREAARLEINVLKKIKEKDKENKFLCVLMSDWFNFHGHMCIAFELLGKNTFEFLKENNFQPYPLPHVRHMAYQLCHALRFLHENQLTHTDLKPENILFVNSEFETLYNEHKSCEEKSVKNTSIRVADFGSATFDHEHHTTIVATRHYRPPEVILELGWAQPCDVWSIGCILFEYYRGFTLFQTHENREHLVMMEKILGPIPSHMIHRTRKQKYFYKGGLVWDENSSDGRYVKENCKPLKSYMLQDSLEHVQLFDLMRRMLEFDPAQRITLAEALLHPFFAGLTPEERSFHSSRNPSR
Protocol: as §2, §3, §4, §1

[13] = target: T3, CDK5/p25 (Homo sapiens, UniProt Q00535); type: biochemical; conditions: for IC50: 15 μmol/L ATP
T3 construct: made in house
T3 sequence (Q00535 whole entry): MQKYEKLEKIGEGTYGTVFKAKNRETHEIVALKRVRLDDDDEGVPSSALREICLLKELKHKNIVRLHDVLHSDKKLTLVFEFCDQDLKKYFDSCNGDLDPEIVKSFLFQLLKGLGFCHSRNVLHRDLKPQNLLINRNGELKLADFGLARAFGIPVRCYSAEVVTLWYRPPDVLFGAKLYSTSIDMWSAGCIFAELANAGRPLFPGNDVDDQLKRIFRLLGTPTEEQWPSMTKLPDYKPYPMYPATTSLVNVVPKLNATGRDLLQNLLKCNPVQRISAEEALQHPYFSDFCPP
T3 sequence (Q15078 99-307 partner limits assumed): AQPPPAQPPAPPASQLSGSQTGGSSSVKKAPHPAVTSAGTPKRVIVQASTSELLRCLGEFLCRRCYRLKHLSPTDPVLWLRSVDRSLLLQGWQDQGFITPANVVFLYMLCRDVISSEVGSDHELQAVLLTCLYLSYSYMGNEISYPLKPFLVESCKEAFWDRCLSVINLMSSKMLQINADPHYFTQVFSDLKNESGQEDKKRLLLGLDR

[14] = target: T4, DYRK3 (Homo sapiens, UniProt O43781); type: biochemical; conditions: for IC50: 15 μmol/L ATP, read-out: IC50 DYRK 3
T4 sequence (O43781 1-588): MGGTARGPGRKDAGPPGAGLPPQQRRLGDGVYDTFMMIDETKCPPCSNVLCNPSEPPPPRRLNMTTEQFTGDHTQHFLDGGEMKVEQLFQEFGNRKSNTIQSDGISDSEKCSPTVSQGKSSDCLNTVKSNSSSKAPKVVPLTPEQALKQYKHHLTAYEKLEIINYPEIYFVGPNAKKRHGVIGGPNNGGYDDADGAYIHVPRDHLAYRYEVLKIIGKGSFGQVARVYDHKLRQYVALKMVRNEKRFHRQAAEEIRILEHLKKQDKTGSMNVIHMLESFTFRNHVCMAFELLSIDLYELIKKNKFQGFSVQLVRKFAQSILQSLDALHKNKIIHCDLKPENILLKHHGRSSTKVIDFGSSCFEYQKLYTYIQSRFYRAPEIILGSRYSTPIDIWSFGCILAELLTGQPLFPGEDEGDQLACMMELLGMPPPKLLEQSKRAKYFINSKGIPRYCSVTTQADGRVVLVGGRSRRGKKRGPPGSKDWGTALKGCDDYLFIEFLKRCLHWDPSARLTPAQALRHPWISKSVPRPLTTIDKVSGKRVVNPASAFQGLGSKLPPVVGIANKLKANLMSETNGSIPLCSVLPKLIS

Chain of CDK9/cyclin T (P50750 whole entry): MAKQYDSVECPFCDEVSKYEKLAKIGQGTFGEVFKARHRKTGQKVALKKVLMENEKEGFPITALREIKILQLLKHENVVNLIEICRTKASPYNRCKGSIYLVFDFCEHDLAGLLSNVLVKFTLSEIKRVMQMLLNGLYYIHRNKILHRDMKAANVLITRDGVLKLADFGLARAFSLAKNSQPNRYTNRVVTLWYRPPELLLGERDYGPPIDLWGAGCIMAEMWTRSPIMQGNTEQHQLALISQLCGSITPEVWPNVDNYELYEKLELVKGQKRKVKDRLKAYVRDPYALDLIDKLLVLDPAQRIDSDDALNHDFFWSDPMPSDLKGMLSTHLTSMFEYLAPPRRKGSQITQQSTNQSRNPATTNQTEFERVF
Chain of CDK9/cyclin T (O60563 whole entry partner): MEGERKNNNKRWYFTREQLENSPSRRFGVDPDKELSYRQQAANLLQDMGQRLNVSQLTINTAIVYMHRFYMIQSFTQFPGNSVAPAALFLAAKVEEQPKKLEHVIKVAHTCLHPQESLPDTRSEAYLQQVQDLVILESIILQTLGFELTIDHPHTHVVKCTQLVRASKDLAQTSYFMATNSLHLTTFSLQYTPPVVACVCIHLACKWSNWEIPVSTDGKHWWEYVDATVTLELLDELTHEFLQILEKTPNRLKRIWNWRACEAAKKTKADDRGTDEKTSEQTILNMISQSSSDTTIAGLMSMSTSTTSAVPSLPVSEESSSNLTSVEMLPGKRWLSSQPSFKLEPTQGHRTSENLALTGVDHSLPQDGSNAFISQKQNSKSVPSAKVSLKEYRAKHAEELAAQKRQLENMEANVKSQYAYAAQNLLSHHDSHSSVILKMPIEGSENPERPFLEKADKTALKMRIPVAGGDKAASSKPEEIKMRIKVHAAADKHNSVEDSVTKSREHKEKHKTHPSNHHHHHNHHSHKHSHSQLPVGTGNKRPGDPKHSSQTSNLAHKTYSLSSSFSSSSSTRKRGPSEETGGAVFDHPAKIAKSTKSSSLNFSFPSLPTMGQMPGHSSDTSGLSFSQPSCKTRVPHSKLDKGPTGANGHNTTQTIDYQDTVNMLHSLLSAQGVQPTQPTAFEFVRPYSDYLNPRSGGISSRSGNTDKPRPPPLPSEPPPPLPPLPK

| SMILES | IC50 [1] | IC50 [2] | IC50 [3] | IC50 [4] | IC50 [6] | IC50 [7] | IC50 [8] | IC50 [9] | IC50 [10] | IC50 [11] | IC50 [12] | IC50 [13] | IC50 [14] | IC50 [5] | also measured |
| --- | --- | --- | --- | --- | --- | --- | --- | --- | --- | --- | --- | --- | --- | --- | --- |
| O=C1NCc2ccc3c(-c4ccccc4)c[nH]c3c21 [8a, 3-Phenyl-6,7-dihydropyrrolo[3,4-g]indol-8(1H)-one] | > 10 µM | > 10 µM | > 10 µM | > 10 µM | 4.8 µM | > 10 µM | 0.046 µM | 0.21 µM | > 10 µM | 0.12 µM | > 10 µM | > 10 µM | > 10 µM | – | Residual enzyme activity CK1 ([1]; 10 µM concentration, ± SEM): 91±4%; remaining activity at 10 µM ([2]; read-out: Residual enzyme activity CDK9/cyclin T): 85 ± 5%; remaining activity at 10 µM ([3]; 10 µM concentration, ± SEM, read-out: Residual enzyme activity CDK2/cyclin A): 101 ± 6%; Residual enzyme activity CDK1/cyclin B ([4]; 10 µM concentration, ± SEM): 71±21%; remaining activity at 10 µM ([5]; 10 µM concentration, ± SEM, read-out: Residual enzyme activity DYRK 2): 69 ± 15%; remaining activity at 10 µM ([6]; 10 µM concentration, ± SEM, read-out: Residual enzyme activity DYRK 1B): 51 ± 9%; Residual enzyme activity GSK3 ([7]; 10 µM concentration, ± SEM): 111±19%; remaining activity at 10 µM ([8]; read-out: Residual enzyme activity CLK 1): 8 ± 2%; remaining activity at 10 µM ([9]; read-out: Residual enzyme activity CLK 2): 14 ± 3%; remaining activity at 10 µM ([10]; 10 µM concentration, ± SEM, read-out: Residual enzyme activity DYRK 1A): 61 ± 12%; remaining activity at 10 µM ([11]; read-out: Residual enzyme activity CLK 4): 2%; remaining activity at 10 µM ([12]; read-out: Residual enzyme activity CLK 3): 78 ± 9%; remaining activity at 10 µM ([13]; 10 µM concentration, ± SEM, read-out: Residual enzyme activity CDK5/p25): 107 ± 20%; remaining activity at 10 µM ([14]; 10 µM concentration, ± SEM, read-out: Residual enzyme activity DYRK 3): 102 ± 13% |
| O=C1NCc2ccc3c(-c4ccc(Cl)cc4)c[nH]c3c21 [8d, 3-(4-Chlorophenyl)-6,7-dihydropyrrolo[3,4-g]indol-8(1H)-one] | > 10 µM | > 10 µM | > 10 µM | > 10 µM | > 10 µM | > 10 µM | 0.1 µM | 0.17 µM | > 10 µM | 0.13 µM | 1.8 µM | > 10 µM | > 10 µM | 9.3 µM | – |
| O=C1NCc2ccc3c(-c4ccc(Cl)c(Cl)c4)c[nH]c3c21 [8e, 3-(3,4-Dichlorophenyl)-6,7-dihydropyrrolo[3,4-g]indol-8(1H)-one] | > 10 µM | > 10 µM | > 10 µM | > 10 µM | > 10 µM | > 10 µM | 0.11 µM | 0.69 µM | > 10 µM | 0.13 µM | > 10 µM | > 10 µM | > 10 µM | > 10 µM | – |
| O=C1NCc2ccc3c(-c4cccc(O)c4)c[nH]c3c21 [8g, 3-(3-Hydroxyphenyl)-6,7-dihydropyrrolo[3,4-g]indol-8(1H)-one] | > 10 µM | 1.1 µM | > 10 µM | > 10 µM | 0.39 µM | > 10 µM | 0.044 µM | 0.082 µM | 0.74 µM | 0.081 µM | 1.7 µM | > 10 µM | 2.2 µM | 0.59 µM | – |
| CC(=O)Oc1cccc(-c2c[nH]c3c4c(ccc23)CNC4=O)c1 [8h, 3-(8-Oxo-1,6,7,8-tetrahydropyrrolo[3,4-g]indol-3-yl)phenyl acetate] | > 10 µM | > 10 µM | > 10 µM | > 10 µM | 1.5 µM | > 10 µM | 0.17 µM | 0.32 µM | 1.4 µM | 0.13 µM | 3.3 µM | > 10 µM | 6.1 µM | 2.4 µM | – |
| Cc1cccc(-c2c[nH]c3c4c(ccc23)CNC4=O)c1 [8i, 3-(3-Methylphenyl)-6,7-dihydropyrrolo[3,4-g]indol-8(1H)-one] | > 10 µM | > 10 µM | > 10 µM | > 10 µM | 4.1 µM | > 10 µM | 0.061 µM | 0.41 µM | 2.6 µM | 0.14 µM | 5.1 µM | > 10 µM | > 10 µM | 3.1 µM | – |
| Cc1[nH]c2c3c(ccc2c1-c1ccccc1)CNC3=O [8k, 2-Methyl-3-phenyl-6,7-dihydropyrrolo[3,4-g]indol-8(1H)-one] | > 10 µM | > 10 µM | > 10 µM | > 10 µM | – | > 10 µM | 0.093 µM | – | 1.5 µM | – | – | > 10 µM | – | – | – |
| CCc1[nH]c2c3c(ccc2c1-c1ccccc1)CNC3=O [8l, 2-Ethyl-3-phenyl-6,7-dihydropyrrolo[3,4-g]indol-8(1H)-one] | 6.1 µM | > 10 µM | > 10 µM | > 10 µM | – | > 10 µM | 0.12 µM | – | 0.81 µM | – | – | > 10 µM | – | – | – |
| O=C1NCc2c(Br)cc3c(-c4ccccc4)c[nH]c3c21 [12a, 5-Bromo-3-phenyl-6,7-dihydropyrrolo[3,4-g]indol-8(1H)-one] | 1.7 µM | > 10 µM | > 10 µM | 2.8 µM | – | > 10 µM | 0.043 µM | – | 0.2 µM | – | – | 5.3 µM | – | – | – |
| Cc1[nH]c2c3c(c(Br)cc2c1-c1ccccc1)CNC3=O [12b, 5-Bromo-2-methyl-3-phenyl-6,7-dihydropyrrolo[3,4-g]indol-8(1H)-one] | > 10 µM | > 10 µM | > 10 µM | > 10 µM | 0.11 µM | > 10 µM | 0.023 µM | 0.025 µM | 0.11 µM | < 0.03 µM | 7.1 µM | > 10 µM | 0.12 µM | 0.11 µM | – |
| O=C1NCc2c(Cl)cc3c(-c4ccccc4)c[nH]c3c21 [12c, 5-Chloro-3-phenyl-6,7-dihydropyrrolo[3,4-g]indol-8(1H)-one] | > 10 µM | > 10 µM | > 10 µM | – | 1.8 µM | > 10 µM | 0.38 µM | 0.033 µM | 0.32 µM | 0.3 µM | 2.2 µM | > 10 µM | > 10 µM | 2.3 µM | – |
| CN1Cc2ccc3c(-c4ccccc4)c[nH]c3c2C1=O [12d, 7-Methyl-3-phenyl-6,7-dihydropyrrolo[3,4-g]indol-8(1H)-one] | > 10 µM | > 10 µM | > 10 µM | > 10 µM | > 10 µM | > 10 µM | > 10 µM | > 10 µM | > 10 µM | > 10 µM | > 10 µM | > 10 µM | > 10 µM | > 10 µM | – |
| NC(=O)Cn1cc(-c2ccccc2)c2ccc3c(c21)C(=O)NC3 [15c, 2-(8-Oxo-3-phenyl-7,8-dihydropyrrolo[3,4-g]indol-1(6H)-yl)acetamide] | > 10 µM | > 10 µM | > 10 µM | > 10 µM | > 10 µM | > 10 µM | > 10 µM | > 10 µM | > 10 µM | > 10 µM | > 10 µM | > 10 µM | > 10 µM | > 10 µM | – |
